Legend:
Assay type in all cases: biochemical
[1] = molecular target: T1, full length active recombinant SYK enzyme (Homo sapiens, UniProt P43405); test: SYK tyrosine phosphorylation activity, LANCE TR-FRET kinase assay; settings: 1 nM SYK, 100 μM ATP, 1 hour at room temperature
T1 construct: full length active recombinant SYK enzyme (Millipore, CA); purchased Millipore
Description: Potency of candidate molecules for inhibiting Syk tyrosine phosphorylation activity is assessed by measuring the ability of a test compound to inhibit Syk-mediated tyrosine phosphorylation of a Syk-specific substrate.
SYK tyrosine phosphorylation activity is measured using the LANCE™ Technology developed by Perkin Elmer Life and Analytical Sciences (Boston, Mass.). LANCE™ refers to homogeneous time resolved fluorometry applications using techniques such as time-resolved fluorescence resonance energy transfer assay (TR-FRET) (see generally for procedures in Perkin Elmer Application Note—How to Optimize a Tyrosine Kinase Assay Using Time Resolved Fluorescence-Based LANCE Detection, wwww.perkinelmer.com/lifesciences). The assay principle involves detection of a phosphorylated substrate using energy transfer from a phosphospecific europium-labeled antibody to streptavidin-allophycocyanin as an acceptor.
To test the ability of candidate molecules to inhibit SYK tyrosine phosphorylation activity, molecules are reconstituted in 30% DMSO and serially diluted 1:3 with the final dilution containing DMSO in the absence of the candidate molecule. The final DMSO concentration in the assay is 3%. Kinase assays are performed as a two part reaction. The first reaction is a kinase reaction that comprises a candidate molecule, full length active recombinant SYK enzyme (Millipore, CA) and biotin-labeled SYK-specific substrate biotin-[…]-OH. The second reaction involves termination of the kinase reaction and the simultaneous addition of the detection reagents-europium-labeled anti-phosphotyrosine reagent (Eu-W1024-PY100, Perkin Elmer, Boston, Mass.) and Streptavidin-Allophycocyanin detection reagent (SA-APC, Prozyme, CA). The kinase reaction is performed in a black U-bottom 96-well microtitre plate. The final reaction volume is 50 μL and contains a final concentration of 1 nM active SYK enzyme, 550 nM SYK-substrate, and 100 μM ATP diluted in a buffer containing 50 mM Tris pH 7.5, 5 mM MgCl2, and 1 mM DTT. The reaction is allowed to proceed for 1 hour at room temperature. The stop buffer contains 100 mM Tris pH 7.5, 300 mM NaCl2, 20 mM EDTA, 0.02% Brij35, and 0.5% BSA. The detection reagents are added to the reaction mixture at the following dilutions—1:500 for Eu-W1024-PY100 and 1:250 for SA-APC. The kinase reaction is terminated by the addition of 50 μL stop buffer containing the detection reagents. The detection is allowed to proceed for 1 hr at room temperature. Detection of the phosphorolated substrate in the absence and presence of inhibitors is measured in the TR-FRET instrument, Analyst HT (Molecular Probes, Sunnyvale, Calif.) and the condition for measurements are set up using CriterionHost Release 2.0 (Molecular Probes, Sunnyvale, Calif.). The settings used are a follows: excitation 360 nm, emission 665-7.5 nm, beam splitter 350 nm 50/50, flash 100 pulses, delay 60 us, integration 400 us, z-height 2 mm. Inhibition of SYK-tyrosine kinase activity is calculated as the maximum response observed in the presence of inhibitor, compared to that in the absence of inhibitor. IC50s are derived by non-linear regression analysis.

JAK1 = molecular target: T2, JAK1 (Homo sapiens, UniProt P23458); test: JAK tyrosine phosphorylation activity, Z'-LYTE FRET kinase assay; settings: catalytic domain recombinant kinase, Tyr6 peptide; for IC50: read-out: JAK1 IC50 % Inhibition
T2 construct: 5 μl of catalytic domain recombinant Kinase enzyme+Tyr peptide substrate (Invitrogen, CA); purchased Invitrogen
T2 sequence (P23458 875-1153 limits assumed): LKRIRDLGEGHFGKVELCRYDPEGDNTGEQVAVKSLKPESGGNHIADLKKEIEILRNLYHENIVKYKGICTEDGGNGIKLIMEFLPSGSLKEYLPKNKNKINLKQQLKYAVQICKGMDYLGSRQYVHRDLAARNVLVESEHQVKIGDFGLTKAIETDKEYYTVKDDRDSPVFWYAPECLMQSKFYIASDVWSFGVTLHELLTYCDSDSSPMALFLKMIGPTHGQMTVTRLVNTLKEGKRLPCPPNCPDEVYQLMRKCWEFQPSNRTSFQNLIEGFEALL
Description: (§1) JAK and SYK tyrosine phosphorylation activity is measured using the Z'-LYTE™ Technology developed by Invitrogen Corporation (Carlsbad, Calif.). For JAK1, JAK2 and JAK3 the Z'-LYTE™ Kinase Assay Kit-Tyr6 Peptide (part number PV4122) was used. The Z'-LYTE™ biochemical assay employs a fluorescence resonance energy transfer (FRET) coupled-enzyme format and is based on the differential sensitivity of phosphorylated and non-phosphorylated peptides to proteolitic cleavage. The assay uses a synthetic peptide substrate that is labelled with a donor fluorophore (coumarin) and an acceptor fluorophore (fluorescein) that make up a FRET pair. In the primary reaction (the Kinase Reaction), the kinase transfers the γ-phosphate of ATP to a single tyrosine residue on the substrate, while the presence of a kinase inhibitor in the primary reaction suppresses phosphorylation. In the secondary reaction (the Development Reaction), a site-specific protease (the Development Reagent) is added. The development buffer quenches the Kinase Reaction, while the protease recognizes and cleaves non-phosphorylated Z'-LYTE™ peptide substrate. Cleavage disrupts FRET between the donor and acceptor fluorophores on the non-phosphorylated substrate, while uncleaved, phosphorylated substrate maintains FRET.
(§2) To test the ability of candidate molecules to inhibit JAK tyrosine phosphorylation activity, molecules are reconstituted in 100% DMSO and serially diluted 1:10 in polypropylene v-bottom microtiter plates. The candidate molecules are then diluted 1:25 into kinase buffer and 2.5 μl transferred into duplicate wells of a 384 well low volume black microtiter assay plate (Corning, USA). The final DMSO concentration in the assay is 1%. The kinase reaction contains 2.5 μl of a candidate molecule, 5 μl of catalytic domain recombinant Kinase enzyme+Tyr peptide substrate (Invitrogen, CA) and 2.5 μl ATP (Invitrogen, CA). The kinase reaction is allowed to precede for 1 hour at room temperature. The protease reaction is initiated by the addition of 5 μl Development Reagent (Invitrogen, CA). After 1 hour incubation at room temperature the fluorescence is measured using a FlexStation plate reader (Molecular Devices, Sunnyvale, Calif.). The reader settings used are as follows: Fluorescence mode, endpoint, top read, excitation 400 nm, emission 445 nm and 520 nm. Auto Cutoff 435 nm and 515 nm, PMT sensitivity high, 6 reads per well. Inhibition of JAK activity is calculated as the percent phosphorylation of substrate in the presence of inhibitor compared to the percent phosphorylation of substrate in the absence of inhibitor. IC50's were derived using Xlfit 4.3 (IDBS, UK), 4 parameter logistic model 205: Y=(A+((B−A)/(1+((C/x)^D)))).

JAK2 = molecular target: T3, JAK2 (Homo sapiens, UniProt O60674); test: as above; settings: catalytic domain recombinant kinase, Tyr6 peptide
T3 construct: 5 μl of catalytic domain recombinant Kinase enzyme+Tyr peptide substrate (Invitrogen, CA); purchased Invitrogen
T3 sequence (O60674 849-1124 limits assumed): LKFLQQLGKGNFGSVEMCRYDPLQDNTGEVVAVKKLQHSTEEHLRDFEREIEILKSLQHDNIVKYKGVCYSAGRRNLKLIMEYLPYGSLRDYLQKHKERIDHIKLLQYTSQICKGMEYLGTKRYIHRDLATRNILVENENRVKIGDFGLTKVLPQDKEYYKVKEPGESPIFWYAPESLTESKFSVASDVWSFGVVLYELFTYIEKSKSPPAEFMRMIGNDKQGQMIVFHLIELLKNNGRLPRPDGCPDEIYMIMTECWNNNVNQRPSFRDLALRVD
Description: as §1, §2

JAK3 = molecular target: T4, JAK3 (Homo sapiens, UniProt P52333); test: as above; settings: catalytic domain recombinant kinase, Tyr6 peptide
T4 construct: 5 μl of catalytic domain recombinant Kinase enzyme+Tyr peptide substrate (Invitrogen, CA); purchased Invitrogen
T4 sequence (P52333 822-1111 limits assumed): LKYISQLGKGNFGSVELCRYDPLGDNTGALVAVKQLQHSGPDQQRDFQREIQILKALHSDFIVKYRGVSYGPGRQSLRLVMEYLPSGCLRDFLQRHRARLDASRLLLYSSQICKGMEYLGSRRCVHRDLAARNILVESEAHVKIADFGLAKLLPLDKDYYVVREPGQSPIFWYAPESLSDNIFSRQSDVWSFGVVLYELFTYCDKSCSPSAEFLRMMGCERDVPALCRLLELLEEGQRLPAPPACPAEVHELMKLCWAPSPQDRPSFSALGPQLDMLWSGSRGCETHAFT
Description: as §1, §2

Row | Structure (SMILES) | IC50 [1] | JAK1 IC50 potency class (JAK1) | JAK2 IC50 potency class (JAK2) | JAK3 IC50 potency class (JAK3) | IC50 (JAK1)
1 | CS(=O)(=O)N1CCN(c2ccc(Nc3ncc(C(N)=O)c(NC4CC4)n3)cc2C#N)CC1 [Compound 47, 2-((3-cyano-4-(4-(methylsulfonyl)piperazin-1-yl)phenyl)amino)-4-(cyclopropylamino)pyrimidine-5-carboxamide] | ++ (1.0 uM<IC50<0.10 uM) | +++ (0.10 uM<IC50<0.01 uM) | ++++ (0.01 uM<IC50<0.001 uM) | ++++ (0.01 uM<IC50<0.001 uM) | 
2 | CCS(=O)(=O)N1CCN(c2ccc(Nc3ncc(C(N)=O)c(NC4CC4)n3)cc2C#N)CC1 [Compound 48, 2-((3-cyano-4-(4-(ethylsulfonyl)piperazin-1-yl)phenyl)amino)-4-(cyclopropylamino)pyrimidine-5-carboxamide] | ++ (1.0 uM<IC50<0.10 uM) | ++ (1.0 uM<IC50<0.10 uM) | +++ (0.10 uM<IC50<0.01 uM) | ++++ (0.01 uM<IC50<0.001 uM) | 
3 | CS(=O)(=O)N1CCN(c2c(F)cc(Nc3ncc(C(N)=O)c(NC4CC4)n3)cc2F)CC1 [Compound 49, 4-(cyclopropylamino)-2-((3,5-difluoro-4-(4-(methylsulfonyl)piperazin-1-yl)phenyl)amino)pyrimidine-5-carboxamide] | ++ (1.0 uM<IC50<0.10 uM) | ++ (1.0 uM<IC50<0.10 uM) | +++ (0.10 uM<IC50<0.01 uM) | +++ (0.10 uM<IC50<0.01 uM) | 
4 | CCS(=O)(=O)N1CCN(c2c(F)cc(Nc3ncc(C(N)=O)c(NC4CC4)n3)cc2F)CC1 [Compound 50, 4-(cyclopropylamino)-2-((4-(4-(ethylsulfonyl)piperazin-1-yl)-3,5-difluorophenyl)amino)pyrimidine-5-carboxamide] | ++ (1.0 uM<IC50<0.10 uM) |  | ++ (1.0 uM<IC50<0.10 uM) | ++ (1.0 uM<IC50<0.10 uM) | > 1000 nM
5 | COc1cc(Nc2ncc(C(N)=O)c(NC3CC3)n2)ccc1N1CCC(C(=O)N(C)C)CC1 [Compound 51, 4-(cyclopropylamino)-2-((4-(4-(dimethylcarbamoyl)piperidin-1-yl)-3-methoxyphenyl)amino)pyrimidine-5-carboxamide] | ++ (1.0 uM<IC50<0.10 uM) | +++ (0.10 uM<IC50<0.01 uM) | ++++ (0.01 uM<IC50<0.001 uM) | ++++ (0.01 uM<IC50<0.001 uM) | 
6 | CN(C)C(=O)C1CCN(c2ccc(Nc3ncc(C(N)=O)c(NC4CC4)n3)cc2F)CC1 [Compound 52, 4-(cyclopropylamino)-2-((4-(4-(dimethylcarbamoyl)piperidin-1-yl)-3-fluorophenyl)amino)pyrimidine-5-carboxamide] | +++ (0.10 uM<IC50<0.01 uM) | +++ (0.10 uM<IC50<0.01 uM) | ++++ (0.01 uM<IC50<0.001 uM) | ++++ (0.01 uM<IC50<0.001 uM) | 
7 | CN(C)C(=O)C1CCN(c2ccc(Nc3ncc(C(N)=O)c(NC4CC4)n3)cc2Cl)CC1 [Compound 53, 2-((3-chloro-4-(4-(dimethylcarbamoyl)piperidin-1-yl)phenyl)amino)-4-(cyclopropylamino)pyrimidine-5-carboxamide] | +++ (0.10 uM<IC50<0.01 uM) | +++ (0.10 uM<IC50<0.01 uM) | ++++ (0.01 uM<IC50<0.001 uM) | ++++ (0.01 uM<IC50<0.001 uM) | 
8 | NC(=O)c1cnc(Nc2ccc(N3CCOCC3)c(F)c2)nc1NC1CC1 [Compound 54, 4-(cyclopropylamino)-2-((3-fluoro-4-morpholinophenyl)amino)pyrimidine-5-carboxamide] | +++ (0.10 uM<IC50<0.01 uM) | +++ (0.10 uM<IC50<0.01 uM) | ++++ (0.01 uM<IC50<0.001 uM) | ++++ (0.01 uM<IC50<0.001 uM) | 
9 | NC(=O)c1cnc(Nc2ccc(C3CCNCC3)cc2)nc1NC1CC1 [Compound 55, 4-(cyclopropylamino)-2-((4-(piperidin-4-yl)phenyl)amino)pyrimidine-5-carboxamide] | +++ (0.10 uM<IC50<0.01 uM) | +++ (0.10 uM<IC50<0.01 uM) | ++++ (0.01 uM<IC50<0.001 uM) | ++++ (0.01 uM<IC50<0.001 uM) | 
10 | NC(=O)c1cnc(Nc2ccc(C3=CCNCC3)cc2)nc1NC1CC1 [Compound 56, 4-(cyclopropylamino)-2-((4-(1,2,3,6-tetrahydropyridin-4-yl)phenyl)amino)pyrimidine-5-carboxamide] | +++ (0.10 uM<IC50<0.01 uM) | +++ (0.10 uM<IC50<0.01 uM) | +++ (0.10 uM<IC50<0.01 uM) | ++++ (0.01 uM<IC50<0.001 uM) | 
11 | CCS(=O)(=O)N1CC=C(c2ccc(Nc3ncc(C(N)=O)c(NC4CC4)n3)cc2)CC1 [Compound 57, 4-(cyclopropylamino)-2-((4-(1-(ethylsulfonyl)-1,2,3,6-tetrahydropyridin-4-yl)phenyl)amino)pyrimidine-5-carboxamide] | +++ (0.10 uM<IC50<0.01 uM) | +++ (0.10 uM<IC50<0.01 uM) | +++ (0.10 uM<IC50<0.01 uM) | ++++ (0.01 uM<IC50<0.001 uM) | 
12 | CC(C)c1ccc(Nc2ncc(C(N)=O)c(NC3CC3)n2)cc1 [Compound 59, 4-(cyclopropylamino)-2-((4-isopropylphenyl)amino)pyrimidine-5-carboxamide] | +++ (0.10 uM<IC50<0.01 uM) | ++ (1.0 uM<IC50<0.10 uM) | ++ (1.0 uM<IC50<0.10 uM) | +++ (0.10 uM<IC50<0.01 uM) | 
13 | NC(=O)c1cnc(Nc2ccc(C3CCNCC3)cc2)cc1NC1CC1 [Compound 63, 4-(cyclopropylamino)-6-((4-(piperidin-4-yl)phenyl)amino)nicotinamide] | ++ (1.0 uM<IC50<0.10 uM) |  | ++ (1.0 uM<IC50<0.10 uM) | ++ (1.0 uM<IC50<0.10 uM) | > 1000 nM
